The target of this assay is T1, human ENT1 (Homo sapiens, UniProt Q99808).
T1 sequence (Q99808 1-456): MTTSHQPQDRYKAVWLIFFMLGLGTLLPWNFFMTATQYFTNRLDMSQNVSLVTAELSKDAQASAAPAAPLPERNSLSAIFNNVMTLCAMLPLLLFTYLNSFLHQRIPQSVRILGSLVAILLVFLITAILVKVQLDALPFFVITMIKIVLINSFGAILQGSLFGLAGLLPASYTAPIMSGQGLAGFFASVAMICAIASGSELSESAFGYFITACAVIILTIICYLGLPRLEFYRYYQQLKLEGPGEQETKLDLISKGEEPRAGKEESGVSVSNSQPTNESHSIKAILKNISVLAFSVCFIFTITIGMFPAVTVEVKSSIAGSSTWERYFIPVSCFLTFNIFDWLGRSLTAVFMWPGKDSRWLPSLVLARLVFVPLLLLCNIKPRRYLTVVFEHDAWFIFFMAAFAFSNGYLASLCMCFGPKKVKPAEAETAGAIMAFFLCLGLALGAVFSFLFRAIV
Nature of the assay: ENT1 binding assay (competition with Sahenta-DY647 on JAR cells). Set-up: JAR cells expressing ENT1 were bought from ATCC; host or cells: JAR cells. Particulars: binned IC50. In a few lines: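 JAR cells were incubated with test compounds and the fluorescent ligand Sahenta-DY647 in competition. Plates were washed twice by centrifugation (4 min, 400 rcf, 4 °C). Binding potency was derived from the final fluorescence.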
As to `COCCN(CCOC)c1nc(N2CCN(C)C(=O)C2)c2nc(N(CCOC)CCOC)nc(N(C)Cc3cccc(C#N)c3)c2n1` [Compound 237, 3-(((2,6-bis(bis(2-methoxyethyl)amino)-8-(4-methyl-3-oxopiperazin-1-yl)pyrimido[5,4-d]pyrimidin-4-yl)(methyl)amino)methyl)benzonitrile], the IC50 was < 100 nM.
Take `COCCN(CCOC)c1nc(N2CCN(C)C(=O)C2)c2nc(N3CCn4ncnc4C3)nc(N3CCC(OC)CC3)c2n1` [Compound 283, 4-(2-(bis(2-methoxyethyl)amino)-6-(5,6-dihydro-[1,2,4]triazolo[1,5-a]pyrazin-7(8H)-yl)-8-(4-methoxypiperidin-1-yl)pyrimido[5,4-d]pyrimidin-4-yl)-1-methylpiperazin-2-one]: the IC50 lay in the range of 500 to 1000 nM.
As to `COCCN(CCOC)c1nc(N2CCN(c3ncn(C)n3)CC2)c2nc(N(CCOC)CCOC)nc(N(C)Cc3cccc(C(N)=O)c3)c2n1` [Compound 249, 3-(((2,6-bis(bis(2-methoxyethyl)amino)-8-(4-(1-methyl-1H-1,2,4-triazol-3-yl)piperazin-1-yl)pyrimido[5,4-d]pyrimidin-4-yl)(methyl)amino)methyl)benzamide], the IC50 lay in the range of 100 to 500 nM.
`COCCN(CCOC)c1nc(N2CCN(C3CC3)C(=O)C2)c2nc(N(CCO)CCO)nc(N3CCC(OC)CC3)c2n1` [Compound 316, 4-(6-(bis(2-hydroxyethyl)amino)-2-(bis(2-methoxyethyl)amino)-8-(4-methoxypiperidin-1-yl)pyrimido[5,4-d]pyrimidin-4-yl)-1-cyclopropylpiperazin-2-one] gave an IC50 of 500 to 1000 nM.
The same measure for `COCCN(CCOC)c1nc(N2CCC(OC)CC2)c2nc(N3CCN(c4ncccc4N)CC3)nc(N3CCN(C)C(=O)C3)c2n1` [Compound 293, 4-(2-(4-(3-aminopyridin-2-yl)piperazin-1-yl)-6-(bis(2-methoxyethyl)amino)-8-(4-methoxypiperidin-1-yl)pyrimido[5,4-d]pyrimidin-4-yl)-1-methylpiperazin-2-one]: 100 to 500 nM; for `COCCN(CCOC)c1nc(N2CCN(C)C(=O)C2)c2nc(N3CCN(c4ncccc4N)CC3)nc(N3CCC(OC)CC3)c2n1` [Compound 294, 4-(6-(4-(3-aminopyridin-2-yl)piperazin-1-yl)-2-(bis(2-methoxyethyl)amino)-8-(4-methoxypiperidin-1-yl)pyrimido[5,4-d]pyrimidin-4-yl)-1-methylpiperazin-2-one]: < 100 nM; for `CCOCCN(CCOCC)c1nc(N2CCN(C)C(=O)C2)c2nc(N(CCOCC)CCOCC)nc(N(C)Cc3ccccc3)c2n1` [Compound 232, 4-(8-(benzyl(methyl)amino)-2,6-bis(bis(2-ethoxyethyl)amino)pyrimido[5,4-d]pyrimidin-4-yl)-1-methylpiperazin-2-one]: < 100 nM.
The same measure for `COCCN(CCOC)c1nc(N2CCN(C)C(=O)C2)c2nc(N3CCn4cnnc4C3)nc(N3CCC(OC)CC3)c2n1` [Compound 299, 4-(2-(bis(2-methoxyethyl)amino)-6-(5,6-dihydro-[1,2,4]triazolo[4,3-a]pyrazin-7(8H)-yl)-8-(4-methoxypiperidin-1-yl)pyrimido[5,4-d]pyrimidin-4-yl)-1-methylpiperazin-2-one]: 100 to 500 nM.
The same measure for `COCCN(CCn1ccnc1)c1nc(N2CCN(C)C(=O)C2)c2nc(N(CCOC)CCOC)nc(N3CCC(OC)CC3)c2n1` [Compound 285, 4-(2-((2-(1H-imidazol-1-yl)ethyl)(2-methoxyethyl)amino)-6-(bis(2-methoxyethyl)amino)-8-(4-methoxypiperidin-1-yl)pyrimido[5,4-d]pyrimidin-4-yl)-1-methylpiperazin-2-one]: 100 to 500 nM.
For the compound `COCCN(CCOC)c1nc(N2CCC(OC)CC2)c2nc(N(CCOC)CCOC)nc(N3CCCOCC3)c2n1` [Compound 79, N2,N2,N6,N6-tetrakis(2-methoxyethyl)-4-(4-methoxypiperidin-1-yl)-8-(1,4-oxazepan-4-yl)pyrimido[5,4-d]pyrimidine-2,6-diamine], the IC50 is < 100 nM.

Values taken from patent US20230146675A1, “PYRIMIDO[5,4-d]PYRIMIDINE DERIVATIVES AS ENT INHIBITORS FOR THE TREATMENT OF CANCERS, AND COMBINATION THEREOF WITH ADENOSINE RECEPTOR ANTAGONISTS” (ITEOS BELGIUM SA, priority 2020, published 2023).
